# From the supplement of paper PMC10307832
# Assays:
# Assay in all cases: relative viability (nuclei count vs DMSO), 5 days (fraction); higher = more cells survive
# [1] = tested on: EKVX
# How it was run: (§1)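 After 5 days of treatment, lung cancer cells in 1536-well plates were fixed and stained in a single step (final 0.05% Triton X-100, 1% formaldehyde, 1 ug/ml Hoechst) and their nuclei counted on 4× images. Treatment had been applied by pin tool the day after seeding as one drug alone or as a fixed anchor-drug dose with five library-drug doses (not always all listed) in √10 steps. Relative viability is the nuclei count of treated wells divided by that of vehicle wells, and values are medians of duplicate plates.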
# [2] = tested on: NCI-H2087
# How it was run: as §1
# [3] = tested on: A-427
# How it was run: as §1
# [4] = tested on: ChaGo-K-1
# How it was run: as §1
# [5] = tested on: NCI-H1915
# How it was run: as §1
# [6] = tested on: NCI-H596
# How it was run: as §1
# [7] = tested on: NCI-H1734
# How it was run: as §1
# [8] = tested on: HCC-78
# How it was run: as §1
# [9] = tested on: HCC-366
# How it was run: as §1
# [10] = tested on: NCI-H650
# How it was run: as §1
# [11] = tested on: EPLC-272H
# How it was run: as §1
# [12] = tested on: HOP-62
# How it was run: as §1
# [13] = tested on: HCC-44
# How it was run: as §1
# [14] = tested on: NCI-H358
# How it was run: as §1
# [15] = tested on: NCI-H1395
# How it was run: as §1
# [16] = tested on: LOU-NH91
# How it was run: as §1
# [17] = tested on: NCI-H838
# How it was run: as §1
# [18] = tested on: NCI-H3122
# How it was run: as §1
smiles,measurement,setting,value
Cc1cnc(-c2cnc(NCCNc3ccc(C#N)cn3)nc2-c2ccc(Cl)cc2Cl)[nH]1 + NC(=O)Nc1cc(-c2cccc(F)c2)sc1C(=O)N[C@H]1CCCNC1 [AZD7762] (partner 0.2 µM),relative viability,[1]; first compound 0.08 µM,0.731
same,relative viability,[1]; first compound 0.253 µM,0.698
same,relative viability,[1]; first compound 0.8 µM,0.588
same,relative viability,[1]; first compound 2.53 µM,0.655
same,relative viability,[2]; first compound 0.08 µM,1.3
same,relative viability,[2]; first compound 0.8 µM,1.3
same,relative viability,[2]; first compound 2.53 µM,1.17
same,relative viability,[3]; first compound 0.08 µM,0.838
same,relative viability,[3]; first compound 0.253 µM,0.602
same,relative viability,[3]; first compound 0.8 µM,0.692
same,relative viability,[3]; first compound 2.53 µM,0.714
same,relative viability,[4]; first compound 0.08 µM,0.843
same,relative viability,[4]; first compound 0.253 µM,0.754
same,relative viability,[4]; first compound 0.8 µM,0.82
same,relative viability,[4]; first compound 2.53 µM,0.814
same,relative viability,[5]; first compound 0.08 µM,0.692
same,relative viability,[5]; first compound 0.8 µM,0.675
same,relative viability,[5]; first compound 2.53 µM,0.644
same,relative viability,[6]; first compound 0.08 µM,1.3
same,relative viability,[6]; first compound 0.253 µM,0.974
same,relative viability,[6]; first compound 0.8 µM,1.09
same,relative viability,[6]; first compound 2.53 µM,1.01
same,relative viability,[7]; first compound 0.08 µM,0.513
same,relative viability,[7]; first compound 0.253 µM,0.522
same,relative viability,[7]; first compound 0.8 µM,0.543
same,relative viability,[7]; first compound 2.53 µM,0.459
same,relative viability,[8]; first compound 0.08 µM,0.582
same,relative viability,[8]; first compound 0.253 µM,0.582
same,relative viability,[8]; first compound 0.8 µM,0.604
same,relative viability,[8]; first compound 2.53 µM,0.606
same,relative viability,[9]; first compound 0.08 µM,0.284
same,relative viability,[9]; first compound 0.253 µM,0.202
same,relative viability,[9]; first compound 0.8 µM,0.197
same,relative viability,[9]; first compound 2.53 µM,0.0746
same,relative viability,[10]; first compound 0.08 µM,0.979
same,relative viability,[10]; first compound 0.253 µM,0.872
same,relative viability,[10]; first compound 0.8 µM,0.892
same,relative viability,[10]; first compound 2.53 µM,1.03
same,relative viability,[11]; first compound 0.08 µM,0.36
same,relative viability,[11]; first compound 0.253 µM,0.269
same,relative viability,[11]; first compound 0.8 µM,0.224
same,relative viability,[11]; first compound 2.53 µM,0.202
same,relative viability,[12]; first compound 0.08 µM,0.817
same,relative viability,[12]; first compound 0.253 µM,0.383
same,relative viability,[12]; first compound 0.8 µM,0.45
same,relative viability,[12]; first compound 2.53 µM,0.748
same,relative viability,[13]; first compound 0.08 µM,1.05
same,relative viability,[13]; first compound 0.253 µM,1.02
same,relative viability,[13]; first compound 0.8 µM,1.06
same,relative viability,[13]; first compound 2.53 µM,1.15
same,relative viability,[14]; first compound 0.08 µM,0.529
same,relative viability,[14]; first compound 0.253 µM,0.5
same,relative viability,[14]; first compound 0.8 µM,0.478
same,relative viability,[14]; first compound 2.53 µM,0.47
same,relative viability,[15]; first compound 0.08 µM,0.425
same,relative viability,[15]; first compound 0.253 µM,0.43
same,relative viability,[15]; first compound 0.8 µM,0.4
same,relative viability,[15]; first compound 2.53 µM,0.374
same,relative viability,[16]; first compound 0.08 µM,0.823
same,relative viability,[16]; first compound 0.253 µM,0.753
same,relative viability,[16]; first compound 0.8 µM,0.768
same,relative viability,[16]; first compound 2.53 µM,0.83
same,relative viability,[17]; first compound 0.08 µM,0.973
same,relative viability,[17]; first compound 0.253 µM,0.919
same,relative viability,[17]; first compound 0.8 µM,0.941
same,relative viability,[17]; first compound 2.53 µM,0.983
same,relative viability,[18]; first compound 0.08 µM,0.995
same,relative viability,[18]; first compound 0.8 µM,1.03
same,relative viability,[18]; first compound 2.53 µM,0.98
